Test results as given in a melting point compilation (Tetko et al.; mined from patent text by program, amines drawn as free bases though some values may be those of a salt).

First: O=C(O)C(CC1CCCC1)c1ccc(C#Cc2ccccn2)cc1 (configuration not stated)
Second: Cc1ccc(C2(O)CCCCC2C(c2ccccc2)N(C)C)cc1 (configuration not stated)
The melting point of the first is lower: 143 to 147 °C for the first, 168 to 169 °C for the second.

Compared with `CC(C)(C)OC(=O)NCC(=O)c1ccccc1`, `CC(C)(C)OC(=O)N1CCC(Nc2nc3ccccc3[nH]2)CC1` is higher in melting point: 63 to 65 °C for the first, 249 °C for the second.

First: N#Cc1cc(Cl)cc(Oc2ccc(CC(=O)Nc3ccc(S(N)(=O)=O)cc3Br)cc2Br)c1
Second: O=C(OCc1ccccc1)c1n[nH]c2c(=O)[nH]c3cc(Cl)ccc3c(=O)c12
The melting point of the first is lower: 168 to 170 °C for the first, 254 °C for the second.

First: Cc1cccc(C(=O)CSC(=S)Nc2ccc(Cl)cn2)c1
Second: O=C(O)Cc1c(C(=O)c2cccnc2)[nH]c2cc(Cl)ccc12
The melting point of the first is lower: 126 °C for the first, 267 to 268 °C for the second.

First: CCCCCCc1ccc(-c2ncc(C#N)cn2)cc1
Second: CCCCCCc1ccc(C2CN=C(NC(=O)OC)N2C)cc1 (configuration not stated)
The melting point of the first is lower: 86.3 to 87.8 °C for the first, 115 to 116 °C for the second.

First: N#CCCNC(=O)C1=CC(CF)(CF)Oc2ccc(C(F)(F)C(F)(F)C(F)(F)C(F)(F)F)cc21
Second: O=c1cc(C(F)(F)F)nc(Nc2cc(C(F)(F)F)ccc2C(F)(F)F)n1C1CCCCC1
The melting point of the first is lower: 85 to 86 °C for the first, 154 to 156 °C for the second.

First: COc1cc(C)cc(Sc2cccc(N)c2C#N)c1
Second: COc1cc2cc3ncc(C#N)c(Cl)c3cc2cc1OC
The melting point of the first is lower: 108 to 110 °C for the first, over 265 °C for the second.

Compared with `O=c1cc(-c2nnn[nH]2)oc2cc(COc3cccc(OCc4ccc5ccccc5n4)c3)ccc12`, `O=c1c(O)c(-c2ccccn2)oc2ccc(OCc3ccc(F)cc3)cc12` is lower in melting point: 246 °C for the first, 204 to 205 °C for the second.

First: O=C(O)c1cnc2cc3c(cc2c1O)OCO3
Second: O=C(O)Cc1c(C(=O)c2cc(Cl)ccn2)[nH]c2cc(Cl)ccc12
The melting point of the first is higher: over 290 °C for the first, 233 to 234 °C for the second.

Compared with `CC(=O)c1cc(NS(C)(=O)=O)ccc1O`, `CCCCCCC(=O)C=Cc1ccc(O)c(O)c1` is lower in melting point: 121 to 122 °C for the first, 114 to 115 °C for the second.

First: N#CNc1cc(F)ccc1N1CCOCC1
Second: FC(F)c1nc2ccccc2n1-c1nc(Nc2ccncn2)nc(N2CCOCC2)n1
The melting point of the first is lower: 168 to 170 °C for the first, 233 to 235 °C for the second.

`CCCCCCOc1cc2c(cc1/C(C)=C/C=C/C(C)=C/C(=O)O)C(C)(C)CCCS2(=O)=O` and `CCCCCCc1cc2c(cc1/C=C/c1ccc(C(=O)O)s1)C(C)(C)CCC2(C)C` fall in the same range of melting point: 164 to 165 °C for the first, 164 to 165 °C for the second.

First: NC1CCCC(NC(=O)c2ccc(-c3[nH]nc4c3C(=O)c3c(NC(=O)NN5CCOCC5)cccc3-4)s2)C1 (configuration not stated)
Second: COc1cc(CN2CCN(c3ccc(C(=O)NC4CC4)cc3F)CC2)cc2c1OC(C)C(=O)N2 (configuration not stated)
The melting point of the first is higher: over 300 °C for the first, 233 °C for the second.

First: CS(=O)c1ccc(-c2cc(C#N)nn2-c2ccc(F)cc2)cc1 (configuration not stated)
Second: Cc1[nH]c(-c2ccc(F)cc2)c(N)c1C(=O)c1ccccc1
The melting point of the first is lower: 104 to 105 °C for the first, 209 to 210 °C for the second.

First: O=C(NC(Cc1ccccc1)C(=O)O)OCc1ccc(NC(=O)c2ccccc2)cc1 (configuration not stated)
Second: CN(c1ccccc1)S(=O)(=O)N[C@@H](Cc1ccc(NC(=O)c2c(Cl)cccc2Cl)cc1)C(=O)O
The melting point of the first is higher: 197 to 198 °C for the first, 117 °C for the second.

First: O=C1CCC(N2Cc3c(OCc4ccc(CN5CCC(O)(c6ccccc6)CC5)cc4)cccc3C2=O)C(=O)N1 (configuration not stated)
Second: COC1CCN(Cc2ccc(COc3cccc4c3CN(C3CCC(=O)NC3=O)C4=O)cc2)CC1 (configuration not stated)
The melting point of the first is lower: 140 to 142 °C for the first, 149 to 151 °C for the second.

First: CCOC(=O)[C@H](C)Oc1ccc2cc(Br)ccc2c1
Second: COC(=O)Oc1ccc([N+](=O)[O-])cc1
The melting point of the first is lower: 72 to 74 °C for the first, 111 to 112 °C for the second.

First: Cn1nc(C(F)(F)F)nc1NC(=O)CCCOc1cccc(CN2CCCCC2)c1
Second: O=C(Cn1c(-c2ccc(Cl)cc2)nc2cccnc21)NC1CCCCC1
The melting point of the first is lower: 96 to 97 °C for the first, 240 to 241 °C for the second.

First: O=C(CCCCCl)c1cc2c3c(c1)CCC(=O)N3CCC2
Second: Cc1ccc(C(=O)NCc2ccc3c(c2)CN(C2CCC(=O)NC2=O)C3=O)cc1Cl (configuration not stated)
The melting point of the first is lower: 83 to 84 °C for the first, 229 to 231 °C for the second.

First: O=C(CCCCCCCCC(=O)OC1CCN(O)CC1)OC1CCN(O)CC1
Second: CCCCCCCCOc1ccc(-c2ccc(C(C)OC(=O)CCCCC)cc2)cc1 (single isomer, unassigned; (-))
The melting point of the first is higher: 133 to 135 °C for the first, 60.8 °C for the second.

First: Cc1ccc(S(=O)(=O)N2CCCC2c2ccc(C(F)(F)F)cc2)cc1 (racemic)
Second: COc1ccc(S(=O)(=O)N2c3ccccc3-c3ccccc3C2C)cc1 (configuration not stated)
The melting point of the first is lower: 99 °C for the first, 167 to 169 °C for the second.

First: CS(=O)(=O)Nc1cccc(Nc2nc(NCCc3ccccn3)c3nc[nH]c3n2)c1
Second: CCCc1nc(Nc2cccc(N(C)C)c2)nc(NC2CCN(S(C)(=O)=O)CC2)n1
The melting point of the first is higher: 199 to 202 °C for the first, 134 to 136 °C for the second.

Compared with `CNC(=O)On1cc(Cl)cn1`, `CC(=O)NC1CCN(c2cccc(Cl)n2)CC1` is higher in melting point: 125 °C for the first, 153 to 155 °C for the second.

First: COC(=O)c1cc(C(C)(C)C)cc(C(C)(C)C)c1
Second: CC(C)c1cc(C(C)(C)C)cc(C=O)c1O
The melting point of the first is lower: 52 to 52.5 °C for the first, 128 to 130 °C for the second.

First: CN1CCCC1=C(C#N)c1ccc(N)cc1
Second: CS(=O)CC(=O)c1ccc(F)cc1 (configuration not stated)
The melting point of the first is higher: 116 to 118 °C for the first, 94.5 to 96 °C for the second.

First: COc1cc(Cl)c(N)c(C(=O)O)c1OC
Second: COc1cc(C(=O)c2[nH]c3ccccc3c2C)cc([N+](=O)[O-])c1O
The melting point of the first is lower: 140 to 142 °C for the first, 195 to 197 °C for the second.

First: COc1cc(/C=[N+](\[O-])C(C)C)ccc1O
Second: CCOC(=O)C(=O)Nc1ccc(CC)cc1[N+](=O)[O-]
The melting point of the first is higher: 178 to 180 °C for the first, 110 to 112 °C for the second.

Compared with `O=C(NC(=S)Nc1cc(Cl)cc(C(F)(F)F)c1Cl)c1c(F)cccc1F`, `CC(=O)NC(CCC(=O)c1c(F)cccc1F)c1ccc(Br)cc1` (configuration not stated) is higher in melting point: 136 to 141 °C for the first, 162 to 163 °C for the second.

First: Clc1ccc(-c2c(-c3ccccc3)nn3ccccc23)nn1
Second: c1ccc(Cn2c3ccccc3c3ccsc32)cc1
The melting point of the first is higher: 206 °C for the first, 96 to 98 °C for the second.

Compared with `CNc1nc(OCc2ccccc2)ccc1[N+](=O)[O-]`, `CC1(CC(=O)O)CCc2ccc3ccccc3c2C1=O` (configuration not stated) is lower in melting point: 149 °C for the first, 80 to 83 °C for the second.

First: CCc1ccc(-c2ccc(C(=O)N[C@@H]3CCc4cccc(N5CCN(C)CC5)c4C3)cc2)cc1
Second: Cc1cccc(COc2ccc(-c3ccc(C(=O)NC(Cc4ccccc4)C(=O)O)cc3)cc2)c1 (configuration not stated)
The melting point of the first is higher: 234 to 235 °C for the first, 204 °C for the second.

Compared with `CC(C(=O)NCC(F)(F)C(F)(F)F)C(=O)NC1C(=O)N(C)c2c(F)cccc2OC1C` (configuration not stated), `CON(C)C(=O)c1cc(C(F)(F)F)nc2c(C(F)(F)F)cccc12` is lower in melting point: 126 to 134 °C for the first, 93 to 95 °C for the second.

Compared with `CCCCc1oc2ccccc2c1C(=O)c1cc(Br)c(OCC(=O)O)c(Br)c1`, `CCCCc1c(-c2cc3ccccc3o2)nc(N)nc1-c1cc2ccccc2o1` is higher in melting point: 92 to 94 °C for the first, 142 to 144 °C for the second.

First: CCCOc1c(OC)cc(NC(C)CCCN2C(=O)c3ccccc3C2=O)c2ncccc12 (configuration not stated)
Second: Cn1cc(-c2cccc(C(F)(F)F)c2)c(=O)c(-c2ccccc2Cl)c1
The melting point of the first is lower: 140 to 143 °C for the first, 191 to 193 °C for the second.

Compared with `CCC1c2cc(Cl)ccc2-c2ccc(Cl)cc21`, `CC1CCCCN1c1nc(N)nc(-c2cc(Cl)ccc2Cl)n1` (configuration not stated) is higher in melting point: 80 to 83 °C for the first, 136 to 137 °C for the second.

First: O=C1CCCC(c2ccc(Cl)cc2)O1 (configuration not stated)
Second: NCC(c1ccc(Cl)c(Cl)c1)C1CCCCC1O (mixture of isomers)
The melting point of the first is lower: 110 to 111 °C for the first, 117 to 118 °C for the second.

First: CC(C)c1nccn1N=Cc1cc(C(C)(C)C)c(O)c(C(C)(C)C)c1
Second: CC(C)C(C)(C)[Si](C)(C)Oc1ccc2c(c1)c(I)c1n2CCC1
The melting point of the first is higher: 159 to 160 °C for the first, 97 to 98 °C for the second.

Compared with `C[C@H](CSc1nc2ccccc2[nH]1)Nc1nc(Cl)nc2c1ncn2[C@@H]1O[C@H](CO)[C@@H](O)[C@H]1O`, `O=C(Nc1ccccc1C(=O)N1CCCCC1)N[C@@H](Cc1ccc(NC(=O)c2c(Cl)cccc2Cl)cc1)C(=O)O` is lower in melting point: 213 to 215 °C for the first, 191 °C for the second.

Compared with `COc1ccc(OC)c2c1C[C@](C)(O)CC21SCCS1`, `COc1nc2cc([N+](=O)[O-])c(C)c(C(=O)N3CCNCC3)c2nc1OC` is lower in melting point: 152 to 153 °C for the first, 150 to 152 °C for the second.

First: CCOC(=O)c1cc(N=C=S)c(Cl)cc1Cl
Second: CCOC(=O)C(Cc1c(Cl)cc(OC)cc1Cl)(NC(C)=O)C(=O)OCC
The melting point of the first is lower: 45 to 46 °C for the first, 154 to 156 °C for the second.

First: CC(C)(C)OC(=O)N1[C@@H](C2CC2)[C@H](C(=O)O)OC1(C)C
Second: CCOC(=O)C1CCN(c2cc(C)nc3c2c(C)cn3-c2c(C)cc(Cl)cc2C)CC1
The melting point of the first is lower: 104 to 108 °C for the first, 140 to 142 °C for the second.

First: Cc1c(CC(=O)O)c2cc(O)ccc2n1C(=O)c1ccc(OC(F)(F)F)cc1
Second: Cn1cc(-c2cc3cccnc3[nH]2)c2cc(OC3(CO)CCC3)ccc21
The melting point of the first is higher: 193 to 195 °C for the first, 144 to 146 °C for the second.

Compared with `FC(F)Sc1ccc(-n2cnnn2)cc1`, `N#Cc1cnn2c(C(F)(F)F)cc(-c3cccnc3)nc12` is higher in melting point: 94 to 97 °C for the first, 193 °C for the second.

First: CCC(CC)c1nnc(S)n(N)c1=O
Second: CCC(CC)Nc1cc(C)nc(Oc2c(C)cccc2C)c1N
The melting point of the first is higher: 162 to 164 °C for the first, 98 to 100 °C for the second.

First: CCC1Nc2cc(F)ccc2-n2cccc21 (configuration not stated)
Second: CCN(C(=O)C1CC1)c1cnn2ccccc12
The melting point of the first is lower: 49 to 51 °C for the first, 83 to 86 °C for the second.

First: CC(=O)OCCn1ncc(-c2ncc([N+](=O)[O-])n2C)c1C
Second: Cc1cnc(N)c2nc(C)n(CC(C)C)c12
The melting point of the first is lower: 79 °C for the first, 178 to 180 °C for the second.

First: COc1cc(C2CCN(C[C@H](O)CO)CC2)ccc1Nc1ncc2ccc(-c3cccc(S(=O)(=O)NC(C)(C)C)c3)n2n1
Second: CC(=O)OCCCCN(C)CCN(C)C(=O)[C@@H]1CCCN1S(=O)(=O)c1ccc(Cl)c(COc2cccc3c(-n4ccnc4)cc(C)nc23)c1Cl
The melting point of the first is higher: 192 to 220 °C for the first, 76 °C for the second.

Compared with `C#CCN1CC(=O)N(c2c(C)cccc2C)C1=S`, `CC(C)Nc1cccc(C2CN3CCSC3=N2)c1` (configuration not stated) is lower in melting point: 117 to 121 °C for the first, 47 to 51 °C for the second.

Compared with `CCCCC(C=O)(CC)CS(=O)(=O)c1ccccc1C(=O)c1ccccc1` (configuration not stated), `CCCCCCCCCCC/C=C\c1ccc(C=CC(=O)OC)cc1` is lower in melting point: 135 to 136 °C for the first, 60 to 62 °C for the second.

First: Cn1nc(N)c2sc3ncccc3c21
Second: CCCCn1c(=S)sc2c(=N)n(NC(N)=O)cnc21
The melting point of the first is lower: 194 to 196 °C for the first, 222 °C for the second.

First: CCNC(=O)c1cc(C(=O)O)cc(C(=O)NCC)n1
Second: COc1cnn(-c2cc(F)c(C#N)cc2F)c(=O)c1Cl
The melting point of the first is higher: 278 to 280 °C for the first, 182 °C for the second.
